{
  "source": "ChEMBL document CHEMBL1134436",
  "about": "“Significance of hydrogen bonding at the S(1)' subsite of calpain I” (Bioorg Med Chem Lett, 2001)",
  "data": [
    {"target": "T1, Calpain-1 catalytic subunit (Sus scrofa, UniProt P35750)", "T1 sequence (P35750 whole entry)": "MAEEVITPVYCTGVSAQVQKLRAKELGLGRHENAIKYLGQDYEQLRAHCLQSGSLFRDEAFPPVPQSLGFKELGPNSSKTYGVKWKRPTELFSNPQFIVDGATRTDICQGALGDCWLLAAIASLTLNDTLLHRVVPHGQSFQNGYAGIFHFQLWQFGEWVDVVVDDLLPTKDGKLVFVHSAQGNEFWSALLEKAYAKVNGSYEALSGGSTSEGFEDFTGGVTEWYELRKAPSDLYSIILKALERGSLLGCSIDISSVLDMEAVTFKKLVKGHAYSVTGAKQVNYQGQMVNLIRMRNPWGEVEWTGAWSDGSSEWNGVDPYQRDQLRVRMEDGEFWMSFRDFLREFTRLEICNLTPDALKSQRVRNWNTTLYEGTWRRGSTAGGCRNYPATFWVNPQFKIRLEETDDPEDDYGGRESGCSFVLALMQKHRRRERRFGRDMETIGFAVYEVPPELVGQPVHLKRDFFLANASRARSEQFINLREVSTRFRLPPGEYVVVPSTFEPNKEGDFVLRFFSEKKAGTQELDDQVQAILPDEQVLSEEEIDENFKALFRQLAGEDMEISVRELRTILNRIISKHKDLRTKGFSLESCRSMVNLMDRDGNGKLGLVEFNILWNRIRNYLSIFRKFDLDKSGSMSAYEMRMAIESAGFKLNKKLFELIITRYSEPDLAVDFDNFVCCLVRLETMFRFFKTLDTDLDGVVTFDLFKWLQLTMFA", "test": "Binding affinity was evaluated against porcine erythrocyte Calpain 1 at the S1 subsite of the enzyme", "units": {"Ki": "nM"}, "values": [
      {"compound": "CCON(C)C(=O)C(=O)[C@H](Cc1ccccc1)NC(=O)[C@H](CC(C)C)NC(=O)OCc1ccccc1", "Ki": 750},
      {"compound": "CC(C)C[C@H](NC(=O)OCc1ccccc1)C(=O)N[C@@H](Cc1ccccc1)C(=O)C(=O)NOCc1ccccc1", "Ki": 45},
      {"compound": "CC(C)C[C@H](NC(=O)OCc1ccccc1)C(=O)N[C@@H](Cc1ccccc1)C(=O)C(=O)N(C)OCc1ccccc1", "Ki": 673},
      {"compound": "CCONC(=O)C(=O)[C@H](Cc1ccccc1)NC(=O)[C@H](CC(C)C)NC(=O)OCc1ccccc1", "Ki": 62},
      {"compound": "CC(C)C[C@H](NC(=O)OCc1ccccc1)C(=O)N[C@@H](Cc1ccccc1)C(=O)C(=O)NCCc1ccccc1", "Ki": 72},
      {"compound": "CCCNC(=O)C(=O)[C@H](Cc1ccccc1)NC(=O)[C@H](CC(C)C)NC(=O)OCc1ccccc1", "Ki": 107},
      {"compound": "CCN(OCc1ccccc1)C(=O)C(=O)[C@H](Cc1ccccc1)NC(=O)[C@H](CC(C)C)NC(=O)OCc1ccccc1", "Ki": 28000},
      {"compound": "CCN(CC)C(=O)C(=O)[C@H](Cc1ccccc1)NC(=O)[C@H](CC(C)C)NC(=O)OCc1ccccc1", "Ki": 76000},
      {"compound": "CCNC(=O)C(=O)[C@H](Cc1ccccc1)NC(=O)[C@H](CC(C)C)NC(=O)OCc1ccccc1", "Ki": 200}
    ]}
  ]
}
